Tested on: LNC
Test: LNC proliferative response to overlapping peptides of HSP60
Type: cell-based, Lewis rats
Conditions: day 26 after AA induction, SI±SEM, SI<2 considered not significant
Protocol: T-cell proliferation assays were performed at day 26 after the induction of AA, when the disease is at its peak, as previously described (Quintana et al., 2002). Briefly, popliteal and inguinal lymph node cells (LNC), were cultured in quadruplicates in 200 μl round bottom microtiter wells (Costar Corp., Cambridge, USA) at 2×10^5 cells per well with or without antigen. The T-cell mitogen Concanavalin A (Con A) was used as a positive control for T-cell proliferation. Cultures were incubated for 96 hr at 37° C. in a humidified atmosphere of 5% CO2. T-cell responses were detected by the incorporation of [methyl-3H]-thymidine (Amersham, Buckinghamshire, UK; 1 μCi/well), which was added to the wells for the last 18 hr. The stimulation index (SI) was computed as the ratio of the mean c.p.m. of antigen- or mitogen-containing wells to control wells cultured with medium alone. The results of T-cell proliferation experiments are shown as SI±SEM, T-cell responses with SI<2 were considered not significant.
It was previously reported that the suppression of AA by pHSP60 DNA vaccination was associated with T-cell reactivity to a single HSP60 peptide epitope, Hu3 (Quintana et al., 2003). […]

KFGADARALMLQGVDLLADA (human hsp60 epitope) [Hu3]
Stimulation Index (SI) (LNC from pHSP70-vaccinated rats): did not respond
Stimulation Index (SI) (LNC from pcDNA3-vaccinated rats): did not respond
